Earlier results as cited in US9625473B2, “Cytokine biomarkers as predictive biomarkers of clinical response for glatiramer acetate” (TEVA PHARMACEUTICAL INDUSTRIES LTD., priority 2010, dated 2017).

Columns and labels:
PBMC = conditions: GA-treated vs. untreated patients
IL-4 = conditions: after stimulation with GA, mediated predominantly by CD4 cells, GA-treated vs. untreated patients
IFN-gamma = conditions: after stimulation with high GA concentrations, partially mediated by CD8 cells, GA-treated vs. untreated patients

## Glatiramer acetate [GA]
RRMS subjects; RRMS subjects, GA 20 mg/day, three double-blind placebo-controlled studies
  number of relapses, compared with placebo: significant reduction
RRMS subjects; daily standard dose of 20 mg
  tolerability: generally well tolerated
RRMS subjects; largest controlled study, GA 20 mg vs placebo
  relapse rate reduction: 32%
RRMS subjects; largest controlled study, under GA 20 mg
  relapse rate: 1.34
RRMS subjects; over 9 months of treatment, 20 mg group, MRI
  median cumulative number of Gd-enhancing lesions: 11 lesions
PBMC
  GA-induced PBMC proliferation: significant reduction
IL-4
  IL-4 ELISPOT response: positive
IFN-gamma
  IFN-gamma response: elevated
